Measurements published in ChEMBL document CHEMBL4813963, “Discovery of pyrazolo-thieno[3,2-d]pyrimidinylamino-phenyl acetamides as type-II pan-tropomyosin receptor kinase (TRK) inhibitors: Design, synthesis, and biological evaluation” (Eur J Med Chem, 2021).
Each block holds one compound with its values, some of them ahead of it.

Columns and labels:
[1] = target: T1, High affinity nerve growth factor receptor (Homo sapiens, UniProt P04629); assay: Inhibition of recombinant His-tagged human TRKA (441 to 796 residues) expressed in baculovirus expression system using 5-FAM-EEPLYWSFPAKKK-CONH2 as substrate preincubated for 1 hr followed by substrate addition in presence of ATP by mobility shift assay
Target sequence in this assay (P04629 whole entry, the tested form may be a part): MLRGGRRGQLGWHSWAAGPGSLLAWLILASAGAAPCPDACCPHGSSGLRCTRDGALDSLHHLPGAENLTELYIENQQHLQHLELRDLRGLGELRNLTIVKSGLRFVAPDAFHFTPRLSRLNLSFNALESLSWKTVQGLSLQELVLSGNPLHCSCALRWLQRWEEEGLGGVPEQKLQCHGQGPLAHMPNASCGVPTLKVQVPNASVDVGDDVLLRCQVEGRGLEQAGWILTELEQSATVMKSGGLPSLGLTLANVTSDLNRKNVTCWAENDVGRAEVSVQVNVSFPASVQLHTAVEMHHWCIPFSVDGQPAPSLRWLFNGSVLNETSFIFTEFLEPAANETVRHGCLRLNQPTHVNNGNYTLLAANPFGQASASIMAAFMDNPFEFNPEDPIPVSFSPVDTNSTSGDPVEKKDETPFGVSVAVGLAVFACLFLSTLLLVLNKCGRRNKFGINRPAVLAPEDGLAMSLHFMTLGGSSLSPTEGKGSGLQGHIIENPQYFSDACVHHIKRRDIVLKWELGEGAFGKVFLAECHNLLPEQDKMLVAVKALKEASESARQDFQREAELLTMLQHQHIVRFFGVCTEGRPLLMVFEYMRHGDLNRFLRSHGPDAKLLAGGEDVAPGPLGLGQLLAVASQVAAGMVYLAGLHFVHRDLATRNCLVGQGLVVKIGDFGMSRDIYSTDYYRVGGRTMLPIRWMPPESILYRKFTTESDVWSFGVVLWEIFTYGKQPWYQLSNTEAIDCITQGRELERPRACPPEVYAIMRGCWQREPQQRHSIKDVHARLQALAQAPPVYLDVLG

KM12 = assay: Cytotoxicity against human KM12 cells assessed as reduction in cell viability incubated for 72 hrs by resazurin based assay; format: functional; conditions: KM12, 72 h
[2] = target: Macrophage colony-stimulating factor 1 receptor (Homo sapiens, UniProt P07333); assay: Inhibition of CSF1R (unknown origin)
Aurora kinase B = Aurora kinase B (Homo sapiens, UniProt Q96GD4); assay: Inhibition of Aurora B (unknown origin)
Aurora kinase A = Aurora kinase A (Homo sapiens, UniProt O14965); assay: Inhibition of Aurora A (unknown origin)
[3] = Permeability of compound in human brain like endothelial cells BBB model at 10 uM after 120 mins by LC-MS analysis; format: ADME, cell-based; conditions: read-out: permeability (converted)
[4] = target: Serine/threonine-protein kinase Nek2 (Homo sapiens, UniProt P51955); assay: Inhibition of NEK2 (unknown origin)
[5] = target: Mitogen-activated protein kinase kinase kinase kinase 4 (Homo sapiens, UniProt O95819); assay: Inhibition of MAP4K4 (unknown origin)
[6] = target: Epidermal growth factor receptor (Homo sapiens, UniProt P00533); assay: Inhibition of EGFR (unknown origin)
[7] = target: T1, High affinity nerve growth factor receptor; assay: Inhibition of recombinant His-tagged human TRKA (441 to 796 residues) expressed in baculovirus expression system at 20 uM using 5-FAM-EEPLYWSFPAKKK-CONH2 as substrate preincubated for 1 hr followed by substrate addition in presence of ATP by mobility shift assay relative to control
Target sequence in this assay (P04629 33-796 limits assumed): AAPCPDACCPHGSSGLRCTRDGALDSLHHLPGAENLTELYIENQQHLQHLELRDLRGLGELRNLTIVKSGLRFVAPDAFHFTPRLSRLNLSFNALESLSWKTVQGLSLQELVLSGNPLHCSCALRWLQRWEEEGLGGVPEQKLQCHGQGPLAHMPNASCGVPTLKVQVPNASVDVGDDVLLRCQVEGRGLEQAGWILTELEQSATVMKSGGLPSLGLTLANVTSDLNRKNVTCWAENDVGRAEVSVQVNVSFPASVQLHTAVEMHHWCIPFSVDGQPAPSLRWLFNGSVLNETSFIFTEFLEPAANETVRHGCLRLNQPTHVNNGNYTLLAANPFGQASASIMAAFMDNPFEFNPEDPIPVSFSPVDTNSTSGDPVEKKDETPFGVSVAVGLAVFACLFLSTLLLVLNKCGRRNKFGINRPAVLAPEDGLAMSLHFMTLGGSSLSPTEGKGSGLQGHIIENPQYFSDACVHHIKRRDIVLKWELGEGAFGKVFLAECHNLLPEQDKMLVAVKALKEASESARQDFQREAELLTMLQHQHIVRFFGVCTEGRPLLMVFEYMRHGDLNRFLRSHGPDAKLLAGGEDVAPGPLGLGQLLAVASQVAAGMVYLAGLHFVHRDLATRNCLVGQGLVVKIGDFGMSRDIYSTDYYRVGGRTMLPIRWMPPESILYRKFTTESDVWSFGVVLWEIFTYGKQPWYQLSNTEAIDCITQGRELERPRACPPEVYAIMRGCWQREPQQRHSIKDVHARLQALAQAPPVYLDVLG

Chain of Mitogen-activated protein kinase kinase kinase kinase 4 (O95819 whole entry): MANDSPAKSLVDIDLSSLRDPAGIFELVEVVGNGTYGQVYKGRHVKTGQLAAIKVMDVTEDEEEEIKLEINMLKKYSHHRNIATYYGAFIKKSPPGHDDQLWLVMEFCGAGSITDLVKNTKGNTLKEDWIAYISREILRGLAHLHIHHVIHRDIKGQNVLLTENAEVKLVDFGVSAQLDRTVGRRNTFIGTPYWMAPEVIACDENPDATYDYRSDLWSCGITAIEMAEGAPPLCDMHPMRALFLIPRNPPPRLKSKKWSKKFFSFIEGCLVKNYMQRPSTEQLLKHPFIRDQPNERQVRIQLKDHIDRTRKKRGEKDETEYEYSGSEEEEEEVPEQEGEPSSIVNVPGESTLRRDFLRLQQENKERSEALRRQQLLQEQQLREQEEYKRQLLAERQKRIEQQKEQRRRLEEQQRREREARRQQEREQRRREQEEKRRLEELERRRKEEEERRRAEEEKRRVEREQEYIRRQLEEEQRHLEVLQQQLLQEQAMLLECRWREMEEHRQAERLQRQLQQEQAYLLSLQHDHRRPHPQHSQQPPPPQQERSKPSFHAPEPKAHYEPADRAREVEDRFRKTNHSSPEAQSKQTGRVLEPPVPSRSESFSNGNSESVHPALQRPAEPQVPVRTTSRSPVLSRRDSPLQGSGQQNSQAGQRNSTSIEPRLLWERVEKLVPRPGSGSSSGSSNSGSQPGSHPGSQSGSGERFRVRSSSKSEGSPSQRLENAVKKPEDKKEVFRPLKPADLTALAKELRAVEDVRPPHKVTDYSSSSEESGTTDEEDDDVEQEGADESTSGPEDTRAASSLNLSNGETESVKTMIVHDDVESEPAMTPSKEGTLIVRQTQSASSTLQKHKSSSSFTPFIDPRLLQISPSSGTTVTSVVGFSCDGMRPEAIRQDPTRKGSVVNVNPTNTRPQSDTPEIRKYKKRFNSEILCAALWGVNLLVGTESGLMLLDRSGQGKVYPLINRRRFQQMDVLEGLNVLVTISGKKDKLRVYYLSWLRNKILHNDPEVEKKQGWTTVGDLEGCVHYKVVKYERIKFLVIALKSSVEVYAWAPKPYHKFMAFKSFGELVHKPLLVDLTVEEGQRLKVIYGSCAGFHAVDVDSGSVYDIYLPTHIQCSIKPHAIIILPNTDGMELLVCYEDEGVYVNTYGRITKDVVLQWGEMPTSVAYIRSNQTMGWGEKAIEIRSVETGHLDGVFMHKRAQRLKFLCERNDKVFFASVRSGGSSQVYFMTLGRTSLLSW
Chain of Macrophage colony-stimulating factor 1 receptor (P07333 whole entry): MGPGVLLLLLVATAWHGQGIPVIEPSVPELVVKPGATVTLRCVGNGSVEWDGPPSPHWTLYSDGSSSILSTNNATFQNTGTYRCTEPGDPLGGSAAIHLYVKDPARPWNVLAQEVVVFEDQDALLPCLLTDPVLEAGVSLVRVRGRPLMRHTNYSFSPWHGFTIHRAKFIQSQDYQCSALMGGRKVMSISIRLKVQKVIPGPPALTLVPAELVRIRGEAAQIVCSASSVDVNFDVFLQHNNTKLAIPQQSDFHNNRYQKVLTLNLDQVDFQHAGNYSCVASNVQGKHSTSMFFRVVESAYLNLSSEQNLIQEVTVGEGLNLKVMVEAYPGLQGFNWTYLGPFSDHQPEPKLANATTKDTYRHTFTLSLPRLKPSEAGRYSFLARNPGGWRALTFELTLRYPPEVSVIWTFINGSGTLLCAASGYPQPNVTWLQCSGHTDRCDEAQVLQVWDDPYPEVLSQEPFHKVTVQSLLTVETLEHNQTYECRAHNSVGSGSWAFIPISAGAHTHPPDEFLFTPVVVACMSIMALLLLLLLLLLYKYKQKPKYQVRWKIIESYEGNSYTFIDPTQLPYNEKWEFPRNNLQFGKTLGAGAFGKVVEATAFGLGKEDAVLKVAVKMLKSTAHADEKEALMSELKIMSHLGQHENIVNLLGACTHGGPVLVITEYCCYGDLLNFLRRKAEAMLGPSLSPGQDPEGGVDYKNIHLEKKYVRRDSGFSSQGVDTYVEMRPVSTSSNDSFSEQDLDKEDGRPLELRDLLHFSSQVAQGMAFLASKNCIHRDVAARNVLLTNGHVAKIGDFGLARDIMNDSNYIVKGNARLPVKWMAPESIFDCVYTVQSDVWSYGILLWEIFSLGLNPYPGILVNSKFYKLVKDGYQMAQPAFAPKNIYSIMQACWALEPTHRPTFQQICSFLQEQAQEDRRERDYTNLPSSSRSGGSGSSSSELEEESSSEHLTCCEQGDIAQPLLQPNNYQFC
Chain of Aurora kinase A (O14965 whole entry): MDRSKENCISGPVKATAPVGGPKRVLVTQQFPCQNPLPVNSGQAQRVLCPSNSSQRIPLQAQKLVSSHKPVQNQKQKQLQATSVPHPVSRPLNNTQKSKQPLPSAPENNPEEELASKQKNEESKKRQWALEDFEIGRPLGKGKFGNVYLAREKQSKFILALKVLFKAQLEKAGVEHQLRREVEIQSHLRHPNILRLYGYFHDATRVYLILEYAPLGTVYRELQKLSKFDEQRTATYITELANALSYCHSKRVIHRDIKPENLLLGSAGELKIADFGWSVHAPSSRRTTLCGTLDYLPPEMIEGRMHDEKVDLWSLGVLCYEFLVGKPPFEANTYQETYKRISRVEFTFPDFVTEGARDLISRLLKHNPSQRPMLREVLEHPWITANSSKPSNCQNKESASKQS
Chain of Serine/threonine-protein kinase Nek2 (P51955 whole entry): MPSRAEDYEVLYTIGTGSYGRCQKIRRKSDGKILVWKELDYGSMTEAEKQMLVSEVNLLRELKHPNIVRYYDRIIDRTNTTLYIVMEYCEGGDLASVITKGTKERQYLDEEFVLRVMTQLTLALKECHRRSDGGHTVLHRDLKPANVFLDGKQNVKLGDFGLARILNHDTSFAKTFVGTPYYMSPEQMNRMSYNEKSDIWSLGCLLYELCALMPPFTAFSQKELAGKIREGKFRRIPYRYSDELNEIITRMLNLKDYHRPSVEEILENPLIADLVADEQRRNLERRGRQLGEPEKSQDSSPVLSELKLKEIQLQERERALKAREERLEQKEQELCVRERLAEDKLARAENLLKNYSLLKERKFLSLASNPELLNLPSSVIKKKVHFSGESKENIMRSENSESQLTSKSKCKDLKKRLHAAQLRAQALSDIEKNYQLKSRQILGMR
Chain of Aurora kinase B (Q96GD4 whole entry): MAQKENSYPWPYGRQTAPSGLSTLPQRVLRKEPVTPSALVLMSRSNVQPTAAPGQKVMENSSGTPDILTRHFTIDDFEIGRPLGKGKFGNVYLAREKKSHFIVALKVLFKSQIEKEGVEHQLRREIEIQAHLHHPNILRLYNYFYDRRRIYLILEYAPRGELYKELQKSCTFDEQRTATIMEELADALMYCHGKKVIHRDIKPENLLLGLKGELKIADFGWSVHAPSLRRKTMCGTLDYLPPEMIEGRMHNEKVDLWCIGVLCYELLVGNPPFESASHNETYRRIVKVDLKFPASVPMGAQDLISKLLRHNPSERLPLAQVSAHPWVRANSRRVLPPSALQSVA

- IC50 [1]: 40.5 µM
Structure (SMILES): O=C(Cc1ccc(Nc2ncnc3ccsc23)cc1)N[C@H]1CCCC[C@@H]1O
- IC50 (KM12): > 200 µM

- IC50 [2]: 13.6 µM
- IC50 (Aurora kinase B): 1.99 µM
- IC50 (Aurora kinase A): 0.893 µM
- Papp at 2 h, 10 µM [3]: 50.5 ×10⁻⁶ cm/s
- IC50 [4]: > 200 µM
- IC50 [5]: 41.5 µM
- IC50 [6]: 176 µM
Structure (SMILES): Cn1cc(-c2cc3ncnc(Nc4ccc(CC(=O)Nc5cc(C(C)(C)C)nn5C)cc4)c3s2)cn1

- IC50 [1]: 41.2 µM
Structure (SMILES): O=C(Cc1ccc(Nc2ncnc3ccsc23)cc1)N[C@@H]1CCCC[C@@H]1O
- IC50 (KM12): > 200 µM

- inhibition [7]: 18%
Structure (SMILES): COc1ccc(Nc2ncnc3ccsc23)cc1
- IC50 (KM12): 103 µM
